US11142718B2, “Ecofriendly and biodegradable lubricant formulation and process for preparation thereof” (Council of Scientific & Industrial Research, priority 2017, dated 2021)
Read-outs that look alike come from different tables or passages of the source.

What was measured:
Type in all cases: physicochemical
Viscosity index (P-56) = experiment: Viscosity index (P-56)
Experimental: (§1) In an embodiment of the present invention the polyol complex ester base oils may be selected from the viscosity range of 34.26 to 43.54 cSt at 40° C. as per IS: 1448: P-25 matching the specification and a high viscosity index of 161-171 as per P-56.
(§2) The synthesized products have the following characteristics: • a. The prepared esters have viscosity grade of 31.0 to 47.0 cSt at 40° C. as per P-25 matching the specification and a high viscosity index of 161-171 as per P-56. • b. […] The biodegradability of the synthesized ester is above 95% as per the standard ASTM D: 5864 test method for biodegradability. • e. The products are non toxic to the sewage bacteria. • f. The conventional additives which are suitable for mineral oils are also giving positive response with this ester. • g. The products have good anti wear properties with wear scar diameter of 0.350 mm at 40 kgf load as per ASTM D: 4172B. • h. The products have excellent load bearing capacity. • i. The products have good lubricity. • j. The products have good oxidative stability. • k. The products have no evaporation loss. • l. The products have good adherence to metal characteristics. • m. The products have good corrosion inhibiting characteristics. • n. […] Synthetic biodegradable polyol complex ester lubricating oils have excellent biodegradability, a high viscosity index and a low pour point, a high flash point, very good lubricity, good oxidative stability and property of preventing corrosion and suitable for use with sealing materials. • p.

[1] = Pour point (IS: 1448: P-10)
Experimental: as §2

[2] = Kinematic viscosity (IS: 1448: P-25); conditions: for viscosity at 100° C. / viscosity at 0° C.: in cSt
[3] = Kinematic viscosity (IS: 1448: P-25); conditions: for viscosity at 40° C.: in cSt; for KV in cst at 40° C.: P-25
Experimental: as §1, §2

Evaporation loss (P-136) = experiment: Evaporation loss (P-136)
Acidity (P-2) = experiment: Acidity (P-2)
Density (ASTM D: 4052) = experiment: Density (ASTM D: 4052)
[4] = Adherence to metal (drop diameter change, contact angle); conditions: polished mild steel substrates

| Compound | viscosity index (Viscosity index (P-56)) | pour point [1] | viscosity at 100° C. [2] | viscosity at 40° C. [3] | Evaporation loss, % by mass (Evaporation loss (P-136)) | viscosity index (Viscosity index (P-56); P-56) | pour point ([1]; P-10) | Acidity, Inorganic (Acidity (P-2)) | Acidity, Organic (Acidity (P-2)) | KV in cst at 0° C. [2] | viscosity at 0° C. [2] | KV in cst at −35° C. [2] | Density, d4^20 (Density (ASTM D: 4052)) | Adherence to metal, change in diameter of the drop, percent [4] | KV in cst at 40° C. [3] |
| --- | --- | --- | --- | --- | --- | --- | --- | --- | --- | --- | --- | --- | --- | --- | --- |
| CCCCC(CC)COC(=O)CCCCCCCCC(=O)OCC(CC)(CC)COC(=O)CCCCCCCCC(=O)OCC(CC)CCCC (centres unmarked) [DESEH, 2,2-diethyl 1,3-propane disebacic 2 ethyl 1 hexanoate] | 165 | > −39 °C | 7.24 | 36.8 | – | – | – | – | – | – | – | – | – | – | – |
| CCCCC(CC)COC(=O)CCCCC(=O)OCC(CC)(COC(=O)CCCCC(=O)OCC(CC)CCCC)COC(=O)CCCCC(=O)OCC(CC)CCCC (centres unmarked) [THADEH, 1,1,1-trishydroxymethyl propane triadipic 2 ethyl 1 hexanoate] | 196 | > −15 °C | 10.17 | 26.51 | – | – | – | – | – | – | – | – | – | – | – |
| CCCCC(CC)COC(=O)CCCCCCCC(=O)OCC(CC)(COC(=O)CCCCCCCC(=O)OCC(CC)CCCC)COC(=O)CCCCCCCC(=O)OCC(CC)CCCC (centres unmarked) [THAZEH, 1,1,1-trishydroxymethyl propane triazilaic 2 ethyl 1 hexanoate] | 165 | > −27 °C | 8.53 | 46.07 | – | – | – | – | – | – | – | – | – | – | – |
| CCCCC(CC)COC(=O)CCCCCCCCC(=O)OCC(CC)(COC(=O)CCCCCCCCC(=O)OCC(CC)CCCC)COC(=O)CCCCCCCCC(=O)OCC(CC)CCCC (centres unmarked) [THSEH, 1,1,1-trishydroxymethyl propane trisebacic 2 ethyl 1 hexanoate] | 196 | > −24 °C | 16.87 | 111 | – | – | – | – | – | – | – | – | – | – | – |

Other lines, results leading:

| viscosity index (Viscosity index (P-56)) | pour point [1] | viscosity at 100° C. [2] | viscosity at 40° C. [3] | Evaporation loss, % by mass (Evaporation loss (P-136)) | viscosity index (Viscosity index (P-56); P-56) | pour point ([1]; P-10) | Acidity, Inorganic (Acidity (P-2)) | Acidity, Organic (Acidity (P-2)) | KV in cst at 0° C. [2] | viscosity at 0° C. [2] | KV in cst at −35° C. [2] | Density, d4^20 (Density (ASTM D: 4052)) | Adherence to metal, change in diameter of the drop, percent [4] | KV in cst at 40° C. [3] | Compound |
| --- | --- | --- | --- | --- | --- | --- | --- | --- | --- | --- | --- | --- | --- | --- | --- |
| 138 | > −24 °C | 12.83 | 91.3 | – | – | – | – | – | – | – | – | – | – | – | CCCCC(CC)COC(=O)CCCCC(=O)OCC(CC)(CC)COC(=O)CCCCC(=O)OCC(CC)CCCC (centres unmarked) [DEADEH, 2,2-diethyl 1,3-propane di adipic 2 ethyl 1 hexanoate] |
| 171 | > −39 °C | – | 47.0 | 0.42 % by mass | 171 | <−39 °C | Nil | 0.0635 mg KoH/gm of oil | 408.23 cst | 408.23 | >5000 cst | 0.9627 gm/ml | 13% | 47.00 cst | CCCCC(CC)COC(=O)CCCCCCCC(=O)OCC(CC)(CC)COC(=O)CCCCCCCC(=O)OCC(CC)CCCC (centres unmarked) [DEAZEH, 2,2-diethyl 1,3-propane diazelaic 2 ethyl 1 hexanoate] |
| 161 | > −39 °C | – | 31.00 | 0.48 % by mass | 161 | <−39 °C | Nil | 0.0817 mg KoH/gm of oil | 323.98 cst | 323.98 | >4000 cst | 0.9915 gm/ml | 12% | 31.00 cst | CCCCC(CC)COC(=O)CCCCC(=O)OCC(C)(C)COC(=O)CCCCC(=O)OCC(CC)CCCC (centres unmarked) [DMADEH, 2,2-dimethyl 1,3-propane di adipic 2 ethyl 1 hexanoate] |
| 169 | > −27 °C | 5.60 | 25.44 | – | – | – | – | – | – | – | – | – | – | – | CCCCC(CC)COC(=O)CCCCCCCC(=O)OCC(C)(C)COC(=O)CCCCCCCC(=O)OCC(CC)CCCC (centres unmarked) [DMAZEH, 2,2-dimethyl 1,3-propane diazelaic 2 ethyl 1 hexanoate] |
| 172 | > −24 °C | 14.8 | 90.33 | – | – | – | – | – | – | – | – | – | – | – | CCCCC(CC)COC(=O)CCCCCCCCC(=O)OCC(C)(C)COC(=O)CCCCCCCCC(=O)OCC(CC)CCCC (centres unmarked) [DMSEH, 2,2-dimethyl 1,3-propane disebacid 2 ethyl 1 hexanoate] |
